# In US10450274B2, “Quinoline compounds, preparation methods thereof, and uses thereof as urate transporter inhibitor drug” (HINOVA PHARMACEUTICALS INC., priority 2015, dated 2019):
# “And” between values parts separate entries of the source, which are not always exact repeats. Equal entries are not always repeated. Where two headings read alike, the source gives them in different places.
# Target: T1, hURAT1 (Homo sapiens, UniProt Q96S37)
# T1 sequence (Q96S37 1-553): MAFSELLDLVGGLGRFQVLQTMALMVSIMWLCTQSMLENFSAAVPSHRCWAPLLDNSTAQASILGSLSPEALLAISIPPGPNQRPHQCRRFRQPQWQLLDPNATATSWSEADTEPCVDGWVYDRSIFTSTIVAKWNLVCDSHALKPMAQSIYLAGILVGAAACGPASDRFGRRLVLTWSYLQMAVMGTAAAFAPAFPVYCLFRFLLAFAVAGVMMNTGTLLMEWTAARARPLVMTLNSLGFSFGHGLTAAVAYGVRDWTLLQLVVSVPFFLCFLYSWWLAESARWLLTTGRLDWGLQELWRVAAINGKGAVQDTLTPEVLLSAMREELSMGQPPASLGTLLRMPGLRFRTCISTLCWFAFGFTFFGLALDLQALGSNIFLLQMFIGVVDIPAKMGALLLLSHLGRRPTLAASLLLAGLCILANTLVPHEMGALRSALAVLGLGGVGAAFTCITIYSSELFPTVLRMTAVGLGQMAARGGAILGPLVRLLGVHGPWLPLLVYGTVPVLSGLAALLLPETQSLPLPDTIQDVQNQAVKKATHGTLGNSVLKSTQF
# Assay: Inhibitory activity against URAT1: 14C-labelled uric acid uptake in HEK-293t cells stably expressing hURAT1
# Format: cell-based
# From the text: • Test example: Determination of the inhibitory activity of compounds according to the present invention against URAT1 Experimental Materials • FBS (Invitrogen, Cat. No. 10099141) • Trypsin (Invitrogen, Cat. No. 25200056) • DPBS (Invitrogen, Cat. No. 14190250) • DMEM (Invitrogen, Cat. No. 10564) • Penicillin-Streptomycin (Invitrogen, Cat. No. 15070-063) • TransIT-293 Transfection Reagent (MIRUS BIO, Cat. No. MIR2706) • Opti-MEM® I Reduced Serum Medium (Invitrogen, Cat. No. 31985-070) • URAT1 plasmid (Genecopoeia, Cat. No. EX-T4563-M03) • Uric acid [8-14C] (ARC, Cat. No. ARC0513-250UCI) • Ultima Gold™ XR (PerkinElmer, Cat. No. 6013111) • Benzbromarone (J&K Scientific, Cat. No. 3562-84-3) • D-Gluconic acid sodium salt (Aladdin, Cat. No. 527-07-1) • Potassium D-gluconate (Aladdin, Cat. No. 299-27-4) • Calcium gluconate (Aladdin, Cat. No. 299-28-5) • DMSO (Sigma, Cat. No. D2650) • Tube, 15 ml (Greiner, Cat. No. 07030115) • Tube, 50 ml (BD Falcon, Cat. No. 352098) • Poly-D-lysine 96-well microplates (BD, Cat. No. 356461) • Isoplate-96 Microplate (PERKIN ELMER, Cat. No. 6005040) Experimental Method:
# Cell Culture: • 1. The HEK-293t cells that expressed the stable expression of hURAT1 were cultured in DMEM medium containing 10% FBS and 1% P/S, and incubated overnight in the incubator at 37° C. under 5% carbon dioxide. • 2. the culture medium was removed, and the cells were washed with PBS, and then the pancreatin was added to digest for 2 minutes. After the cell is separated from the dish, 10 ml of medium was added to terminate digestion. • 3. The cells were placed into a centrifugal apparatus and centrifugated for 2 minutes at the speed of 1000 rpm, followed by the addition of fresh 10 mL medium to resuspend the cells, and calculate the number of cells. The number of cells was adjusted to 4×10^5 cells/mL. • 4. the above counted cells were inoculated into the 96-well plate at 100 μL/well. • 5. The 96-well plate with inoculated cells was placed in a 37° C. cell incubator and cultivated overnight.
# The uric acid absorption experiment labeled with isotope C14: • 1. 5 mL of Cl-free HBSS buffer was added to a 15 mL centrifuge tube, followed by the addition of the uric acid labeled with C14, and the concentration of uric acid was 2 uCi/ml. • 2. The medium in the 96-well plate that was previously cultivated overnight was removed, and the plate was washed three times with […] preheated Cl-free HBSS buffer. • 3. The buffer in the well-washed 96-well plate was removed. • 4. […] Cl-free HBSS buffer containing C-14 labeled uric acid was added into each well in the cleaned 96-well plate, and then DMSO solution of the compound that needs to be tested was added. • 5. After the 96-well plate stood for 5 minutes at room temperature, all the liquid in it was removed. • 6. […] precooled Cl-free HBSS buffer was added to wash the plate three times. • 7. After the remained liquid in the plates was completely removed, 50 μL cell lysis was added to each well, and the plate was agitated on the mixer at a speed of 600 revolutions/min for 10 minutes. • 8. After 50 μL Ultima Gold™ XR scitillation cocktail fluid was added, the plate was continued to agitate for 10 minutes. The well-agitated plate was sealed, and the data was read on MicroBeta Trilux. • 9. The test compound was dissolved in DMSO, and DMSO at the same concentration was added to the HEK293/hURAT1 cell well without test compounds. […] The radiation value obtained from the well containing DMSO is considered to be 100% of the cell uptake. The IC50 values of compounds can be calculated by the inhibition rate at different concentrations.
# Among them, reference compound 1 was synthesized according to the method described in patent WO 2011/159839 A2. Reference compound 2 and reference compound 3 were synthesized according to the method described in patent WO 2014/183555 A1, and they were head-to-head tested with compounds 83 and 129 respectively under the same conditions.
# [1] = HEK-293t/hURAT1 cells, 14C uric acid uptake, 5 minutes at room temperature, Ref Cpd 2, 83, Ref Cpd 3 and 129 are averages of head-to-head tests, read-out: IC50 (nM) of hURAT1 inhibitory activity
IC50 [1] [nM],"IC50 (average of the multiple head-to-head comparison tests, Table 2, read-out: Average (IC50 of multiple determinations)) [nM]","IC50 (single determinations of multiple head-to-head tests, Ref cpd 2 vs Cpd 83, read-out: Multiple determination data (IC50))",SMILES
109,–,–,"CCOc1cccc(-c2ccc3nccc(SC(CC)(CC)C(=O)O)c3c2)c1 [Compound 113, 2-(6-(3-ethoxy-phenyl)-quinolin-4-ylthio)-2-ethylbutanoic acid]"
98,–,–,"CCC(CC)(Sc1ccnc2ccc(-c3ccnc(OC)c3)cc12)C(=O)O [Compound 116, 2-(6-(2-methoxypyridin-4-yl)quinolin-4-ylthio)-2-ethylbutanoic acid]"
133,–,–,"CCC(CC)(Sc1ccnc2ccc(-c3ccncc3)cc12)C(=O)O [Compound 119, 2-(6-(pyridin-4-yl)quinolin-4-ylthio)-2-ethylbutanoic acid]"
360,–,–,"CCC(CC)(Sc1ccnc2ccc(-c3ccnc(C)c3)cc12)C(=O)O [Compound 121, 2-(6-(2-methylpyridin-4-yl)-quinolin-4-ylthio)-2-ethylbutanoic acid]"
201,–,–,CCC(CC)(Sc1ccnc2ccccc12)C(=O)O [Compound 129]

# The remaining lines, values behind:
SMILES,IC50 [1] [nM],"IC50 (average of the multiple head-to-head comparison tests, Table 2, read-out: Average (IC50 of multiple determinations)) [nM]","IC50 (single determinations of multiple head-to-head tests, Ref cpd 2 vs Cpd 83, read-out: Multiple determination data (IC50))"
"CCCC(CCC)(Sc1ccnc2ccc(Br)cc12)C(=O)O [Compound 114, 2-(6-bromoquinolin-4-ylthio)-2-propylpentanoic acid]",203,–,–
"COc1cc(-c2ccc3nccc(SC(C)(C)C(=O)O)c3c2)ccn1 [Compound 115, 2-(6-(2-methoxypyridin-4-yl)quinolin-4-ylthio)-2-methylpropanoic acid]",79,–,–
"CC(C)(Sc1ccnc2ccc(-c3ccnc(F)c3)cc12)C(=O)O [Compound 117, 2-(6-(2-fluoropyridin-4-yl)-quinolin-4-ylthio)-2-methylpropanoic acid]",272,–,–
"Cc1cc(-c2ccc3nccc(SC(C)(C)C(=O)O)c3c2)ccn1 [Compound 120, 2-(6-(2-methylpyridin-4-yl)quinolin-4-ylthio)-2-methylpropanoic acid]",1240,–,–
"O=C(O)C1(Sc2ccnc3ccc(Br)cc23)CCC1 [Ref Cpd 2, reference compound]",138,138,72.9 nM and 185 nM and 172 nM and 164 nM and 144 nM and 127 nM and 99 nM
"O=C(O)C1(Sc2ccnc3ccccc23)CCC1 [Ref Cpd 3, reference compound]",794,–,–
"CC(C)(Sc1ccncc1-c1ccc(C#N)c2ccccc12)C(=O)O [Ref cpd 1 (RDEA3170), reference compound]",154,–,–
